Reference: publication PMC12114840, “Exploring the Anticancer Properties of 1,2,3-Triazole-Substituted Andrographolide Derivatives” (Pharmaceuticals, 2025)

Assays:
cleaved PARP-1 = assay: Western blot, cleaved PARP-1; type: cell-based, human; settings: PANC-1, 3 and 6 μM, 48 h
Source text: To further investigate the mechanism of action of the triazole derivative 12, an apoptosis analysis was subsequently performed in PANC-1 cells. The early stages of apoptosis are characterized by the disruption of membrane asymmetry and the translocation of phosphatidylserine from the inner to the outer leaflet of the plasma membrane, which can be detected using Annexin V-FITC, a protein with high affinity for phosphatidylserine. In the later stages of apoptosis, the cell membrane loses its integrity, allowing propidium iodide (PI) to penetrate into the cell. Thus, PANC-1 cells treated with compound 12 at 3 and 6 μM for 48 h were analyzed by flow cytometry after Annexin V-FITC and PI staining (Figure 1B, bottom panel; and Figure 1D). This analysis can distinguish and quantify viable cells (annexin V−, PI−), early apoptotic cells (annexin V+, PI−), late apoptotic cells (annexin V+, PI+), and necrotic cells (annexin V−/PI+). […]
PANC-1 (1.5 × 10^5 cells/well) were seeded in six-well plates, allowed to adhere overnight, and treated with 3 µM and 6 µM of compound 12 for 48 h. Protein lysates were obtained in RIPA buffer with protease inhibitors (Sigma-Aldrich, Lisbon, Portugal) and quantified using Pierce® bicinchoninic acid (BCA) protein assay reagents (Thermo Fisher Scientific, Porto Salvo, Portugal). […]

PANC-1 cells [1] = assay: Annexin V-FITC/PI double-staining apoptosis assay; type: cell-based, human; settings: 48 h
Source text: To further investigate the mechanism of action of the triazole derivative 12, an apoptosis analysis was subsequently performed in PANC-1 cells. The early stages of apoptosis are characterized by the disruption of membrane asymmetry and the translocation of phosphatidylserine from the inner to the outer leaflet of the plasma membrane, which can be detected using Annexin V-FITC, a protein with high affinity for phosphatidylserine. In the later stages of apoptosis, the cell membrane loses its integrity, allowing propidium iodide (PI) to penetrate into the cell. Thus, PANC-1 cells treated with compound 12 at 3 and 6 μM for 48 h were analyzed by flow cytometry after Annexin V-FITC and PI staining (Figure 1B, bottom panel; and Figure 1D). This analysis can distinguish and quantify viable cells (annexin V−, PI−), early apoptotic cells (annexin V+, PI−), late apoptotic cells (annexin V+, PI+), and necrotic cells (annexin V−/PI+). […] Cleavage of PARP-1 into an 89 kDa protein, cleaved PARP-1, occurs during programmed cell death (apoptosis) as a result of proteolytic processing by active caspase-3. Thus, cleaved PARP-1 is recognized as a marker of apoptosis.
(§1) The analyses were performed as described in the literature. In particular, 1.5 × 10^5 PANC-1 cells/well were seeded in 6-well plates and allowed to adhere overnight, followed by treatment with 3 µM and 6 µM of compound 12 for 48 h. For cell cycle analysis, cells were stained with propidium iodide (Sigma-Aldrich) and subjected to flow cytometry. Cell cycle phases were identified and quantified using the FlowJo X 10.0.7 software (Treestar, Ashland, OR, USA). For apoptosis analysis, cells were stained using the Annexin V-FITC Apoptosis Detection Kit I from BD Biosciences (Enzifarma, Porto, Portugal), according to the manufacturer’s instructions. The Accuri^TM C6 flow cytometer and the BD Accuri C6 software (BD Biosciences, Heidelberg, Germany) were used.

p21 = assay: Western blot, p21; type: cell-based, human; settings: PANC-1, 3 and 6 μM, 48 h
Experimental: (§2) To elucidate the antiproliferative activity of compound 12, cell cycle analysis was performed in the PANC-1 cancer cell line. The cell cycle is a highly controlled process where cellular DNA is replicated and then equally partitioned in two daughter cells. The cell cycle is composed of two distinct phases: the interphase, where the cell grows and undergoes three distinct periods—the G1 (pre-DNA synthesis), S (DNA synthesis), and G2 (pre-division) phases—and mitosis, where cell undergoes division. The newly formed daughter cells then enter the preparatory phases of interphase, and start the G0 phase (quiescence). […] Thus, PANC-1 cells were treated with compound 12 at 3 and 6 µM for 48 h and then analyzed by flow cytometry (Figure 1B,C).
PANC-1 (1.5 × 10^5 cells/well) were seeded in six-well plates, allowed to adhere overnight, and treated with 3 µM and 6 µM of compound 12 for 48 h. Protein lysates were obtained in RIPA buffer with protease inhibitors (Sigma-Aldrich, Lisbon, Portugal) and quantified using Pierce® bicinchoninic acid (BCA) protein assay reagents (Thermo Fisher Scientific, Porto Salvo, Portugal). […] The signal was detected with enhanced chemiluminescence (ECL) (Amersham, GE Healthcare Life Sciences, Enzymatic, Portugal) using the ChemiDoc^TM MP Imaging system (BioRad Laboratories, Amadora, Portugal).

PANC-1 cells [2] = assay: Cell cycle analysis by flow cytometry (propidium iodide); type: cell-based, human; settings: PANC-1, 3 μM and 6 μM, 48 h
Experimental: as §2
as §1, with “The Accuri^TM C6 flow cytometer and the BD Accuri C6 software (BD Biosciences, Heidelberg, Germany) were used.” left out

[3] = system: CCD-18Co cells (non-tumorigenic colon); assay: Sulforhodamine B (SRB) antiproliferative assay, CCD-18Co; type: cell-based; settings: Homo sapiens, CCD-18Co non-tumorigenic, 48 h, mean ± SEM of four to six independent experiments
Experimental: The antiproliferative properties of andrographolide and all prepared derivatives (2–26) were evaluated against a panel of different cancer cell lines, including human pancreatic ductal adenocarcinoma (PANC-1), colorectal adenocarcinoma (HCT116), melanoma (A375), breast adenocarcinoma (MCF-7) and a non-tumorigenic colon (CCD-18Co) cell line using the sulforhodamine B assay.
Human breast adenocarcinoma MCF-7, pancreatic ductal adenocarcinoma PANC-1, melanoma A375, and non-tumorigenic colon CCD-18Co cell lines were purchased from ATCC (Rockville, MD, USA). Human colorectal adenocarcinoma HCT116 cells were kindly provided by B. Vogelstein (The Johns Hopkins Kimmel Cancer Center, Baltimore, MD, USA). Tumor cells were routinely cultured in RPMI-1640 medium with UltraGlutamine from Biowest (VWR, Carnaxide, Portugal) supplemented with 10% fetal bovine serum (FBS) from Biowest (VWR, Carnaxide, Portugal), except for the PANC-1 cells, which were grown in DMEM (4.5 g/L glucose) with stable L-glutamine and sodium pyruvate and supplemented with 10% FBS. The non-tumorigenic CCD-18Co cells were cultured in EMEM (Lonza, VWR, Carnaxide, Portugal), supplemented with 10% FBS. All cells were incubated at 37 °C in a humidified atmosphere of 5% CO2. Routine mycoplasma testing was performed using the MycoAlert™ PLUS mycoplasma detection kit (Lonza).
For the evaluation of the compound effect on cell proliferation, human cell lines were seeded in 96-well plates at a density of 5.0 × 10^3 (HCT116, MCF-7, PANC-1, A375, and CCD-18Co) cells per well, for 24 h. Cells were then treated with serial dilutions of the compound (ranging from 0.63 to 30 µM), for an additional 48 h incubation period. The growth inhibitory effects were assessed by SRB assay, as described in [58], and the half-maximal inhibitory concentration (IC50 values) were determined for each cell line using the GraphPad Prism software version 7.0 (La Jolla, CA, USA). Culture medium containing a maximum of 0.05% dimethyl sulfoxide (DMSO) was used as negative control.

C=C1CC[C@@H]2[C@](C)(COC(C)=O)[C@H](OC(C)=O)CC[C@@]2(C)[C@@H]1C[C@H](C1=CCOC1=O)n1cc(-c2ccc(Br)cc2)nn1 [Compound 12, (12R)-4-bromophenyl-1,2,3-triazole-3,19-diacetoxy-14-deoxy-andrographolide]
levels of cleaved PARP-1 (cleaved PARP-1): significant increase in the levels of cleaved PARP-1
viability at 3 µM (PANC-1 cells [1]; Homo sapiens, PANC-1, 3 µM, read-out: viable cells (annexin-V−, PI−; Q4)): 79.7%
viability at 6 µM (PANC-1 cells [1]; Homo sapiens, PANC-1, 6 µM, read-out: viable cells (annexin-V−, PI−; Q4)): 68.4%
early apoptotic cells (annexin V+, PI−; Q3) (PANC-1 cells [1]; PANC-1, 3 µM): 7.08%
late apoptotic cells (annexin V+, PI+; Q2) (PANC-1 cells [1]; PANC-1, 3 µM): 10.2%
percentage of apoptotic cells (Annexin V+) (PANC-1 cells [1]; PANC-1, 3 µM): 17.28%
early apoptotic cells (annexin V+, PI−; Q3) (PANC-1 cells [1]; PANC-1, 6 µM): 13.3%
late apoptotic cells (annexin V+, PI+; Q2) (PANC-1 cells [1]; PANC-1, 6 µM): 13.5%
percentage of apoptotic cells (Annexin V+) (PANC-1 cells [1]; PANC-1, 6 µM): 26.8%
expression of p21 (p21): increased the expression of p21 in a dose-dependent manner
G2/M population compared to the control (PANC-1 cells [2]): significant increase in the G2/M population
IC50 [3]: 9.6 ± 2.3 µM
